Source: patent publication US20180303809A1, “TREATMENT OF BURN PAIN BY TRPV1 MODULATORS” (Purdue Pharma L.P., priority 2013, published 2018)

Tests used:
Format in all cases: in vivo, rat
male Sprague-Dawley rats [1] = test: Plantar test, thermal hyperalgesia (PWL) in thermal burn pain model; conditions: rat burn injury 50° C. 48 s
Experimental: (§1) Test Animals: Each experiment used male Sprague-Dawley rats weighing between 190-260 g at the time of thermal burn injury. The rats were housed two per cage, and were allowed to acclimate to their environment for at least six days before testing began. The rats had free access to food and water at all times, except during testing and prior to oral (PO) administration of a test compound, when food was removed about 16 hours before dosing. The rats were divided into treatment groups, and one of the following compounds was administered to each group at the dose and by the route of administration indicated in Tables 5.2A to 5.2C, 5.3A and 5.3B, and 5.4A and 5.4B: ketorolac (Sigma-Aldrich, St. Louis, Mo.), AMG 517 (selective TRPV1 antagonist described in Em. Doherty et al., “Novel vanilloid receptor-1 antagonists:2. Structure-activity relationships of 4-oxopyrimidines leading to the selection of a clinical candidate,” J Med Chem 50:3515-3527 (2007).) (Purdue Pharma L. P., Cranbury, N.J.), indomethacin (Alexis Biochemicals, Farmingdale, N.Y.), gabapentin (Bosche Scientific, New Brunswick, N.J.), or (S)-3-chloro-5-(1,2-dihydroxyethyl)-N-(5-(trifluoromethyl)pyridin-2-yl)-5′,6′-dihydro-[2,4′-bipyridine]-1′(2′H)-carboxamide (Compound 1). The control groups were administered the vehicle for the compound of formula (I). The volume of administration for PO treatment was 5 ml/kg, and was the same for all treatment groups. Volume of administration for intraperitoneal (i.p.) drug administration was 2 ml/kg.
(§2) To assess the actions of a compound of formula (I) for the treatment or prevention of burn pain, a model of thermal burn pain was used. A thermal burn injury was induced under isofluorane/O2 inhalation anesthesia. To assess mechanical hyperalgesia and weight bearing, a thermal injury was produced by immersing the left hind paw into water maintained at 55° C. for 24 seconds. The left hind paw of non-injured control animals was immersed in 22° C. water for 24 seconds. To assess thermal hyperalgesia, a thermal injury was produced by immersing the left hindpaw into water maintained at 50° C. for 48 seconds; the left hind-paw of non-injured control animals was immersed in 22° C. water for 48 seconds. The animals were assessed for response to noxious mechanical stimuli by determining PWT for mechanical hyperalgesia, weight bearing difference between the injured or non-injured side, or response to noxious thermal stimuli by determining PWL for thermal hyperalgesia, all as described below, prior to drug administration (baseline), then again at 1, 3 and 5 hours after induction of burn injury.
The plantar test was used to assess thermal hyperalgesia. For this test, hind paw withdrawal latencies (PWL) to a noxious thermal stimulus were determined using a plantar test apparatus (commercially available from Ugo Basile of Italy) following the technique described by K. Hargreaves et al., “A New and Sensitive Method for Measuring Thermal Nociception in Cutaneous Hyperalgesia,” Pain 32(1):77-88 (1988). The maximum exposure time was set at 32 seconds to avoid tissue damage and any directed paw withdrawal from the heat source is taken as the end point. Three latencies were determined at each time point and averaged.

male Sprague-Dawley rats [2] = test: Paw pressure assay, mechanical hyperalgesia (PWT) in thermal burn pain model; conditions: rat burn injury 55° C. 24 s
Experimental: as §1, §2
The paw pressure assay was used to assess mechanical hyperalgesia. For this assay, hind paw withdrawal thresholds (PWT) to a noxious mechanical stimulus were determined using an analgesimeter (Model 7200, commercially available from Ugo Basile of Italy) as described in C. Stein, “Unilateral Inflammation of the Hindpaw in Rats as a Model of Prolonged Noxious Stimulation: Alterations in Behavior and Nociceptive Thresholds,” Pharmacol. Biochem. and Behavior 31:451-455 (1988). The rat's paw was placed on a small platform, and weight was applied in a graded manner up to a maximum of 250 grams. The endpoint was taken as the weight at which the paw was completely withdrawn. PWT was determined once for each rat at each time point, wherein the affected (ipsilateral; same side as the injury) rear paw was tested. […] All drug treatment groups were compared to the vehicle control group (i.e. injured, administered only the vehicle).

male Sprague-Dawley rats [3] = test: Hind limb weight bearing (incapacitance meter, % WL) in thermal burn pain model; conditions: rat burn injury 55° C. 24 s
Experimental: as §1, §2
A commercially available incapacitance meter was used to determine the weight distribution on the two hind paws of the animal (Linton Incapacitance Tester (Linton Instrumentation, Norfolk, UK)). The weight bearing difference (WBD) between the injured and non-injured hindpaw was measured. The animal was placed in the testing chamber that allows the animal to stand normally, distributing its body weight on the hind limbs for the test. Each hind paw was positioned on a separate pressure sensitive pad, which independently measures the pressure applied by each limb. The device continuously collects data after either a force threshold has been exceeded, or the investigator depresses the start pad. Rats were allowed to acclimate when placed on the apparatus, and when they were stationary, the force exerted was then continuously monitored for 3 s. The endpoint was the amount of pressure applied to each limb over time. Three readings were taken for each rat at each time point, and the average used for data analysis. WBD was expressed as “% WL”, i.e. the percentage of weight borne on the burn-injured left hind paw, using the following formula: […]
where WLP is the weight on the left hind paw and WRP is the weight on the right (untreated) hind paw. The 50% value of % WL corresponds to an equal weight distribution across both hind paws. […]

[4] = 30 mg/kg PO, 1 h after administration
[5] = 30 mg/kg PO, 3 h after administration
[6] = 30 mg/kg PO, 5 h after administration
[7] = 30 mg/kg PO, baseline (prior to drug administration)
[8] = 10 mg/kg PO, 1 h after administration
[9] = 10 mg/kg PO, 3 h after administration
[10] = 10 mg/kg PO, 5 h after administration
[11] = 10 mg/kg PO, baseline (prior to drug administration)

CC(=O)Nc1nc2c(Oc3cc(-c4ccc(C(F)(F)F)cc4)ncn3)cccc2s1 [AMG 517]
% Change from Baseline (mean ± S.E.M.) of Paw Withdrawal Latency (male Sprague-Dawley rats [1]; [4]): −50.1 ± 25.49% | Paw Withdrawal Latency (sec) (mean ± S.E.M.) (male Sprague-Dawley rats [1]; [4]): 8.6 ± 0.91 s | % Change from Baseline (mean ± S.E.M.) of Paw Withdrawal Latency (male Sprague-Dawley rats [1]; [5]): −27.1 ± 16.54% | Paw Withdrawal Latency (sec) (mean ± S.E.M.) (male Sprague-Dawley rats [1]; [5]): 11.8 ± 0.66 s | % Change from Baseline (mean ± S.E.M.) of Paw Withdrawal Latency (male Sprague-Dawley rats [1]; [6]): −24.8 ± 15.95% | Paw Withdrawal Latency (sec) (mean ± S.E.M.) (male Sprague-Dawley rats [1]; [6]): 12.1 ± 0.60 s | Paw Withdrawal Latency (sec) (mean ± S.E.M.) (male Sprague-Dawley rats [1]; [7]): 14.4 ± 1.35 s | % Decrease from Baseline (mean ± S.E.M.) of Paw Withdrawal Threshold (male Sprague-Dawley rats [2]; [4]): 61 ± 2.3% | Paw Withdrawal Threshold (g) (mean ± S.E.M.) (male Sprague-Dawley rats [2]; [4]): 94 ± 5.3 g | % Decrease from Baseline (mean ± S.E.M.) of Paw Withdrawal Threshold (male Sprague-Dawley rats [2]; [5]): 52 ± 4.3% | Paw Withdrawal Threshold (g) (mean ± S.E.M.) (male Sprague-Dawley rats [2]; [5]): 115 ± 10.8 g | % Decrease from Baseline (mean ± S.E.M.) of Paw Withdrawal Threshold (male Sprague-Dawley rats [2]; [6]): 65 ± 2.9% | Paw Withdrawal Threshold (g) (mean ± S.E.M.) (male Sprague-Dawley rats [2]; [6]): 86 ± 7.7 g | Paw Withdrawal Threshold (g) (mean ± S.E.M.) (male Sprague-Dawley rats [2]; [7]): 242 ± 6.0 g | % WL (mean ± S.E.M.), percentage of weight borne on the burn-injured left hind paw (male Sprague-Dawley rats [3]; [4]): 39.2 ± 4.30 % | % WL (mean ± S.E.M.), percentage of weight borne on the burn-injured left hind paw (male Sprague-Dawley rats [3]; [5]): 43.1 ± 2.82% | % WL (mean ± S.E.M.), percentage of weight borne on the burn-injured left hind paw (male Sprague-Dawley rats [3]; [6]): 43.0 ± 3.37% | % WL (mean ± S.E.M.), percentage of weight borne on the burn-injured left hind paw (male Sprague-Dawley rats [3]; [7]): 49.4 ± 0.44%

O=C(c1ccccc1)c1ccc2n1CCC2C(=O)O (stereo not shown) [Ketorolac, ketorolac]
% Change from Baseline (mean ± S.E.M.) of Paw Withdrawal Latency (male Sprague-Dawley rats [1]; [8]): −22.3 ± 6.30% | Paw Withdrawal Latency (sec) (mean ± S.E.M.) (male Sprague-Dawley rats [1]; [8]): 9.2 ± 0.96 s | % Change from Baseline (mean ± S.E.M.) of Paw Withdrawal Latency (male Sprague-Dawley rats [1]; [9]): −6.7 ± 5.55% | Paw Withdrawal Latency (sec) (mean ± S.E.M.) (male Sprague-Dawley rats [1]; [9]): 11.9 ± 1.27 s | % Change from Baseline (mean ± S.E.M.) of Paw Withdrawal Latency (male Sprague-Dawley rats [1]; [10]): −10.2 ± 3.05% | Paw Withdrawal Latency (sec) (mean ± S.E.M.) (male Sprague-Dawley rats [1]; [10]): 11.4 ± 0.54 s | Paw Withdrawal Latency (sec) (mean ± S.E.M.) (male Sprague-Dawley rats [1]; [11]): 13.2 ± 0.72 s | % Change from Baseline (mean ± S.E.M.) of Paw Withdrawal Latency (male Sprague-Dawley rats [1]; [4]): −47.6 ± 19.35% | Paw Withdrawal Latency (sec) (mean ± S.E.M.) (male Sprague-Dawley rats [1]; [4]): 8.5 ± 0.89 s | % Change from Baseline (mean ± S.E.M.) of Paw Withdrawal Latency (male Sprague-Dawley rats [1]; [5]): −24.0 ± 19.85% | Paw Withdrawal Latency (sec) (mean ± S.E.M.) (male Sprague-Dawley rats [1]; [5]): 12.6 ± 1.33 s | % Change from Baseline (mean ± S.E.M.) of Paw Withdrawal Latency (male Sprague-Dawley rats [1]; [6]): −10.2 ± 12.40% | Paw Withdrawal Latency (sec) (mean ± S.E.M.) (male Sprague-Dawley rats [1]; [6]): 14.3 ± 0.80 s | Paw Withdrawal Latency (sec) (mean ± S.E.M.) (male Sprague-Dawley rats [1]; [7]): 14.7 ± 1.29 s | % Decrease from Baseline (mean ± S.E.M.) of Paw Withdrawal Threshold (male Sprague-Dawley rats [2]; [8]): 66 ± 2.2% | Paw Withdrawal Threshold (g) (mean ± S.E.M.) (male Sprague-Dawley rats [2]; [8]): 84 ± 6.1 g | % Decrease from Baseline (mean ± S.E.M.) of Paw Withdrawal Threshold (male Sprague-Dawley rats [2]; [9]): 60 ± 3.8% | Paw Withdrawal Threshold (g) (mean ± S.E.M.) (male Sprague-Dawley rats [2]; [9]): 97 ± 7.5 g | % Decrease from Baseline (mean ± S.E.M.) of Paw Withdrawal Threshold (male Sprague-Dawley rats [2]; [10]): 63 ± 34% | Paw Withdrawal Threshold (g) (mean ± S.E.M.) (male Sprague-Dawley rats [2]; [10]): 91 ± 7.1 g | Paw Withdrawal Threshold (g) (mean ± S.E.M.) (male Sprague-Dawley rats [2]; [11]): 246 ± 4.5 g | % WL (mean ± S.E.M.), percentage of weight borne on the burn-injured left hind paw (male Sprague-Dawley rats [3]; [8]): 50.0 ± 2.20 % | % WL (mean ± S.E.M.), percentage of weight borne on the burn-injured left hind paw (male Sprague-Dawley rats [3]; [9]): 42.6 ± 1.91% | % WL (mean ± S.E.M.), percentage of weight borne on the burn-injured left hind paw (male Sprague-Dawley rats [3]; [10]): 40.1 ± 2.72% | % WL (mean ± S.E.M.), percentage of weight borne on the burn-injured left hind paw (male Sprague-Dawley rats [3]; [11]): 49.8 ± 0.31%
